Experimental data published in ChEMBL document CHEMBL1135579, “Serine-threonine protein phosphatase inhibitors: development of potential therapeutic strategies” (J Med Chem, 2002).

What was measured:
L1210 = assay: Reduction of tumor cell growth to 50% in Fostriecin analogues in L1210 Leukemia cell lines; format: functional; conditions: Mus musculus
HCT-8 = assay: Reduction of tumor cell growth to 50% in Fostriecin analogues in HCT-8 colon cancer cell lines; format: functional; conditions: Homo sapiens
[1] = Exogenous inhibition concentration of Serine/threonine protein phosphatase 2B (PP2B)
[2] = Exogenous inhibition of Serine/threonine protein phosphatase 1 (PP1); parameters: species or system Homo sapiens
Jurkat [3] = assay: Inhibition of production of beta-galactosidase IL-2 RGA in Jurkat cells; format: functional, cell-based; conditions: Homo sapiens
Jurkat [4] = assay: Inhibition of production of beta-galactosidase thymidine kinase RGA in Jurkat cells; format: functional, cell-based; conditions: Homo sapiens
[5] = Inhibition of growth after 72 hr continuous exposure to test compounds in Ovarian A2780 tumor cell lines; format: functional; conditions: A2780, 72 h
[6] = Inhibition of growth after 72 hr continuous exposure to test compounds in Colon HCT 116 tumor cell lines; format: functional; conditions: Homo sapiens, HCT-116, 72 h
[7] = Inhibition of growth after 72 hr continuous exposure to test compounds in Osteosarcoma 143B tumor cell lines; format: functional; conditions: Homo sapiens
[8] = Inhibition of growth after 72 hr continuous exposure to test compounds in colon HT-29 tumor cell lines; format: functional; conditions: Homo sapiens, HT-29, 72 h
[9] = Inhibition of growth after 72 hr continuous exposure to test compounds in Ovarian ADDP tumor cell lines; format: functional
[10] = Inhibition of microcystin analogues to catalytic subunits of Serine/threonine protein phosphatase 1C
[11] = Exogenous inhibition concentration of Serine/threonine protein phosphatase 2A (PP2A)
Jurkat [12] = assay: Inhibition of production of IL-2 secretion in Jurkat cells; format: functional, cell-based; conditions: Homo sapiens
[13] = target: T1, Serine/threonine-protein phosphatase PP1-gamma catalytic subunit (Homo sapiens, UniProt P36873); assay: Inhibition of Serine/threonine protein phosphatase 1 by anhydride modified Cantharidin analogues
Target sequence in this assay (P36873 whole entry): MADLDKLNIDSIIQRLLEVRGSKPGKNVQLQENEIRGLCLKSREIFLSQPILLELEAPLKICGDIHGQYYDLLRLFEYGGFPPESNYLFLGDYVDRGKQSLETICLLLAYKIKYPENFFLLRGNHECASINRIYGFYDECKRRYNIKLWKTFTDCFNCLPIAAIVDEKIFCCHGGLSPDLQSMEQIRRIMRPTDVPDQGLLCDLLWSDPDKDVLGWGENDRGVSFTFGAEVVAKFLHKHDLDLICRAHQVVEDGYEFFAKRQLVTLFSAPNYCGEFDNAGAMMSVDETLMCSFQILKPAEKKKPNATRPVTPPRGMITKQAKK

[14] = target: Serine/threonine-protein phosphatase PP1-gamma catalytic subunit (Homo sapiens, UniProt P36873, N124D); assay: Inhibition of Serine/threonine protein phosphatase 1 (PP1) mutants by natural toxins in N124D
Sequence of Serine/threonine-protein phosphatase PP1-gamma catalytic subunit (Homo sapiens, UniProt P36873, N124D) (P36873 2-323 N124D limits assumed): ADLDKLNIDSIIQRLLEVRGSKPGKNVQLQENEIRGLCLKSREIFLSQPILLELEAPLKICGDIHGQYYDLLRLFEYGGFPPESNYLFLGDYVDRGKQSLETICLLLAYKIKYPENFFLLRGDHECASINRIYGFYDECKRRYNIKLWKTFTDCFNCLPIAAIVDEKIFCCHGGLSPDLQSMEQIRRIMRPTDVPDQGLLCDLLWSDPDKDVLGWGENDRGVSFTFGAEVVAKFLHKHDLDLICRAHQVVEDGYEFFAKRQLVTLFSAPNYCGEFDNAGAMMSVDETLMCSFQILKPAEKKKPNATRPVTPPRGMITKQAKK

[15] = target: Serine/threonine-protein phosphatase PP1-gamma catalytic subunit (Homo sapiens, UniProt P36873, H248N); assay: Inhibition of Serine/threonine protein phosphatase 1 (PP1) mutants by natural toxins in H248N
Sequence of Serine/threonine-protein phosphatase PP1-gamma catalytic subunit (Homo sapiens, UniProt P36873, H248N) (P36873 2-323 H248N limits assumed): as the sequence (P36873 2-323 N124D limits assumed) above, with D123N, H247N counted along it

[16] = Exogenous inhibition concentration of Serine/threonine protein phosphatase 5 (PP5)
[17] = target: Serine/threonine-protein phosphatase PP1-gamma catalytic subunit (Homo sapiens, UniProt P36873, C127S); assay: Inhibition of Serine/threonine protein phosphatase 1 (PP1) mutants by natural toxins in C127S
Sequence of Serine/threonine-protein phosphatase PP1-gamma catalytic subunit (Homo sapiens, UniProt P36873, C127S) (P36873 2-323 C127S limits assumed): as the sequence (P36873 2-323 N124D limits assumed) above, with D123N, C126S counted along it

[18] = Exogenous inhibition concentration of Serine/threonine protein phosphatase 2C (PP2C); NI means no inhibition.
[19] = target: Serine/threonine-protein phosphatase PP1-gamma catalytic subunit (Homo sapiens, UniProt P36873, D220V); assay: Inhibition of Serine/threonine protein phosphatase 1 (PP1) mutants by natural toxins in D220V
Sequence of Serine/threonine-protein phosphatase PP1-gamma catalytic subunit (Homo sapiens, UniProt P36873, D220V) (P36873 2-323 D220V limits assumed): as the sequence (P36873 2-323 N124D limits assumed) above, with D123N, D219V counted along it

[20] = target: Serine/threonine-protein phosphatase PP1-gamma catalytic subunit (Homo sapiens, UniProt P36873, R96A); assay: Inhibition of Serine/threonine protein phosphatase 1 (PP1) mutants by natural toxins in R96A
Sequence of Serine/threonine-protein phosphatase PP1-gamma catalytic subunit (Homo sapiens, UniProt P36873, R96A) (P36873 2-323 R96A limits assumed): as the sequence (P36873 2-323 N124D limits assumed) above, with R95A, D123N counted along it

[21] = target: Serine/threonine-protein phosphatase PP1-gamma catalytic subunit (Homo sapiens, UniProt P36873, D208A); assay: Inhibition of Serine/threonine protein phosphatase 1 (PP1) mutants by natural toxins in D208A
Sequence of Serine/threonine-protein phosphatase PP1-gamma catalytic subunit (Homo sapiens, UniProt P36873, D208A) (P36873 2-323 D208A limits assumed): as the sequence (P36873 2-323 N124D limits assumed) above, with D123N, D207A counted along it

[22] = target: Serine/threonine-protein phosphatase PP1-gamma catalytic subunit (Homo sapiens, UniProt P36873, E275R); assay: Inhibition of Serine/threonine protein phosphatase 1 (PP1) mutants by natural toxins in E275R
Sequence of Serine/threonine-protein phosphatase PP1-gamma catalytic subunit (Homo sapiens, UniProt P36873, E275R) (P36873 2-323 E275R limits assumed): as the sequence (P36873 2-323 N124D limits assumed) above, with D123N, E274R counted along it

[23] = target: Serine/threonine-protein phosphatase PP1-gamma catalytic subunit (Homo sapiens, UniProt P36873, R221S); assay: Inhibition of Serine/threonine protein phosphatase 1 (PP1) mutants by natural toxins in R221S
Sequence of Serine/threonine-protein phosphatase PP1-gamma catalytic subunit (Homo sapiens, UniProt P36873, R221S) (P36873 2-323 R221S limits assumed): as the sequence (P36873 2-323 N124D limits assumed) above, with D123N, R220S counted along it

[24] = target: T1, Serine/threonine-protein phosphatase PP1-gamma catalytic subunit; assay: Inhibition of Serine/threonine protein phosphatase 1 (PP1) mutants by natural toxins in wild type
Target sequence in this assay (P36873 2-323 limits assumed, stated change not applied): as the sequence (P36873 2-323 N124D limits assumed) above, with D123N counted along it

[25] = target: Serine/threonine-protein phosphatase PP1-gamma catalytic subunit (Homo sapiens, UniProt P36873, Y272F); assay: Inhibition of Serine/threonine protein phosphatase 1 (PP1) mutants by natural toxins in Y272F
Sequence of Serine/threonine-protein phosphatase PP1-gamma catalytic subunit (Homo sapiens, UniProt P36873, Y272F) (P36873 2-323 Y272F limits assumed): as the sequence (P36873 2-323 N124D limits assumed) above, with D123N, Y271F counted along it

SMILES: C[C@@](O)(/C=C/[C@@H]1OC(=O)C=CC1O)[C@@H](C[C@@H](O)\C=C/C=C\C=C\CO)OP(=O)(O)O (stereo partly specified)
- GI50 (L1210): 0.83 µM
- GI50 (HCT-8): 4.2 µM

SMILES: Cn1cc2c3c1C(=O)C1=C(C3=NCC2)C2(C=C(Br)C(=O)C(Br)=C2)CCN1 [DISCORHABDIN]
- IC50 [1]: 1.15 µM

SMILES: C[C@@](O)(/C=C/[C@H]1CC=CC(=O)O1)[C@@H](C[C@@H](O)\C=C/C=C\C=C\CO)OP(=O)(O)O [FOSTRIECIN]
- GI50 (L1210): 0.21 µM
- GI50 (HCT-8): 2.3 µM
- IC50 [2]: 131 µM

SMILES: O=C(O)[C@@H]1[C@H](C(=O)O)[C@H]2CC[C@@H]1O2
- IC50 (Jurkat [3]): > 100 µM
- IC50 (Jurkat [4]): 42 µM

SMILES: CC[C@@H](C)[C@H]1NC(=O)[C@H]([C@@H](C)CC)NC(=O)[C@H]([C@@H](C)CC)NC(=O)[C@H]([C@@H](C)CC)NC(=O)[C@@H](Cc2ccccc2)NC(=O)[C@H](Cc2ccccc2)NC(=O)[C@@H]2CCCN2C(=O)[C@@H]2CCCN2C(=O)[C@H](C(C)C)NC1=O
- IC50 [1]: 5 µM

SMILES: CCOC1OC(=O)[C@H]2[C@@H]1[C@@H]1CC[C@H]2O1 (stereo partly specified)
- GI50 [5]: 100 µM
- GI50 [6]: 80 µM
- GI50 [7]: 103 µM
- GI50 [8]: 26 µM
- GI50 [9]: 107 µM

SMILES: C[C@@](O)(/C=C/COC(=O)/C=C\CO)[C@@H](C[C@@H](O)\C=C/C=C\C=C\CO)OP(=O)(O)O
- GI50 (L1210): > 1 µM
- GI50 (HCT-8): 56 µM

SMILES: CO[C@@H](Cc1ccccc1)[C@@H](C)/C=C(C)/C=C/[C@@H]1NC(=O)[C@H](C)NC(=O)[C@@H](C)[C@H](C(=O)O)CC(=O)[C@H](CC(C)C)NC(=O)[C@@H](C)NC(=O)CN(C)C(=O)CC[C@H](C(=O)O)NC(=O)[C@H]1C
- IC50 [10]: 0.0008 µM

SMILES: CC1(C(=O)O)C2CCC(O2)C1(C)C(=O)O (stereo unspecified)
- IC50 [11]: 0.05 µM
- IC50 [2]: 0.6 µM

SMILES: C=C1C(=O)N[C@H](C)C(=O)N[C@@H](CC2CCCCC2)C(=O)C[C@@H](C(=O)O)[C@H](C)C(=O)N[C@@H](C)C(=O)N[C@@H](/C=C/C(C)=C/[C@H](C)[C@H](Cc2ccccc2)OC)[C@H](C)C(=O)N[C@@H](C(=O)O)CCC(=O)N1C
- IC50 [10]: 0.00052 µM

SMILES: CN(C)C(=O)C1C(C(=O)O)C2CC[C@H]1O2 (stereo partly specified)
- IC50 (Jurkat [12]): 5 µM
- IC50 (Jurkat [3]): 4.7 µM
- IC50 (Jurkat [4]): 100 µM

SMILES: COC1OC(=O)[C@H]2[C@@H]1[C@@H]1CC[C@H]2O1 (stereo partly specified)
- GI50 [5]: 538 µM
- IC50 [13]: > 1000 µM
- GI50 [6]: 143 µM
- GI50 [7]: > 1000 µM
- GI50 [8]: 28 µM
- GI50 [9]: 323 µM

SMILES: O=C1OC(=O)C2C3CCC(O3)C12 (stereo unspecified)
- GI50 [5]: 50 µM
- GI50 [6]: 24 µM
- GI50 [7]: 43 µM
- IC50 (Jurkat [3]): > 22 µM
- IC50 (Jurkat [4]): 100 µM
- GI50 [8]: 33 µM
- GI50 [9]: 47 µM

SMILES: C/C=C/C[C@@H](C)[C@@H](O)[C@H]1C(=O)N[C@@H](CC)C(=O)N(C)CC(=O)N(C)[C@@H](CC(C)C)C(=O)N[C@@H](C(C)C)C(=O)N(C)[C@@H](CC(C)C)C(=O)N[C@@H](C)C(=O)N[C@H](C)C(=O)N(C)[C@@H](CC(C)C)C(=O)N(C)[C@@H](CC(C)C)C(=O)N(C)[C@@H](C(C)C)C(=O)N1C [CYCLOSPORINE]
- IC50 (Jurkat [12]): 0.007 µM
- IC50 (Jurkat [3]): 0.008 µM
- IC50 (Jurkat [4]): > 1 µM

SMILES: C=CC[C@@H]1/C=C(\C)C[C@H](C)C[C@H](OC)[C@H]2O[C@@](O)(C(=O)C(=O)N3CCCC[C@H]3C(=O)O[C@H](/C(C)=C/[C@@H]3CC[C@@H](O)[C@H](OC)C3)[C@H](C)[C@@H](O)CC1=O)[C@H](C)C[C@@H]2OC [TACROLIMUS ANHYDROUS]
- IC50 [1]: 0.0005 µM

SMILES: COC[C@@H]([C@H](O)[C@H](O)C(=O)NCC[C@H](C)c1nc(/C=C/C[C@@H]2O[C@]3(C[C@@H](O)[C@@H]2C)O[C@H]([C@H](C[C@H](O)[C@H](C)[C@H](O)[C@H](C)/C=C(C)/C(C)=C/C=C/C(C)=C\C#N)OC)[C@H](OP(=O)(O)O)C3(C)C)co1)N(C)C [CALYCULIN A]
- IC50 [14]: > 0.5 µM
- IC50 [15]: > 0.5 µM
- IC50 [16]: < 0.003 µM
- IC50 [17]: 0.0022 µM
- IC50 [11]: 0.0002 µM
- IC50 [18]: no inhibition
- IC50 [19]: 0.00014 µM
- IC50 [20]: 0.058 µM
- IC50 [1]: > 10000 µM
- IC50 [2]: 0.0003 µM
- IC50 [21]: > 0.5 µM
- IC50 [22]: 0.0004 µM
- IC50 [23]: > 0.5 µM
- IC50 [24]: 0.00045 µM
- IC50 [25]: 0.048 µM

SMILES: CCCOC1OC(=O)[C@H]2[C@@H]1[C@@H]1CC[C@H]2O1 (stereo partly specified)
- GI50 [5]: 375 µM
- GI50 [6]: 195 µM
- GI50 [7]: > 1000 µM
- GI50 [8]: 41 µM
- GI50 [9]: 535 µM

SMILES: C[C@@]12C(=O)OC(=O)[C@]1(C)[C@H]1CC[C@@H]2O1 [CANTHARIDIN]
- GI50 [5]: 10 µM
- GI50 [6]: 9 µM
- GI50 [7]: 10 µM
- IC50 [1]: > 1000 µM
- IC50 [2]: 0.5 µM
- GI50 [8]: 6.4 µM
- GI50 [9]: 11 µM

SMILES: CO[C@@H](Cc1ccccc1)[C@@H](C)/C=C(C)/C=C/[C@@H]1NC(=O)[C@H](C)NC(=O)[C@@H](C)[C@H](C(=O)O)CC(=O)[C@H](CC(C)C)NC(=O)[C@@H](C)NC(=O)CN(C2CCCCC2)C(=O)CC[C@H](C(=O)O)NC(=O)[C@H]1C
- IC50 [10]: 0.0008 µM

SMILES: C/C=C/C=C\C=C/[C@H](O)C[C@@H](OP(=O)(O)O)[C@](C)(O)/C=C/[C@H]1CC=CC(=O)O1
- GI50 (L1210): 0.22 µM
- GI50 (HCT-8): 1.5 µM

SMILES: C=C1C(=O)N[C@H](CN)C(=O)N[C@@H](CC(C)C)C(=O)C[C@@H](C(=O)O)[C@H](C)C(=O)N[C@@H](C)C(=O)N[C@@H](/C=C/C(C)=C/[C@H](C)[C@H](Cc2ccccc2)OC)[C@H](C)C(=O)N[C@@H](C(=O)O)CCC(=O)N1C
- IC50 [10]: 0.003 µM

SMILES: COC(=O)C1C(C(=O)O)C2CC[C@H]1O2 (stereo partly specified)
- GI50 [5]: 100 µM
- GI50 [6]: 76 µM
- GI50 [7]: 118 µM
- GI50 [8]: 105 µM
- GI50 [9]: 180 µM

SMILES: C[C@@](O)(/C=C/[C@H]1CC=CC(=O)O1)[C@H](O)C[C@@H](O)\C=C/C=C\C=C\CO
- GI50 (L1210): 2.5 µM
- GI50 (HCT-8): 3.7 µM

SMILES: C[C@]12C(=O)OC(=O)[C@H]1C1CC[C@H]2O1 [PALASONIN]
- IC50 [11]: 0.12 µM
- IC50 [2]: 0.7 µM

SMILES: CC(=O)OC(C)(C)[C@H]1CC[C@](C)([C@@H](O)CC[C@](C)(O)[C@H]2CC[C@H]3O[C@@H]([C@]4(C)CC[C@@H](Br)C(C)(C)O4)CC[C@]3(C)O2)O1
- IC50 [11]: 4 µM
- IC50 [1]: > 10000 µM
- IC50 [2]: > 1000 µM

SMILES: C/C=C1/C(=O)C[C@@H](C(=O)O)[C@H](C)C(=O)N[C@@H](C(C)C)C(=O)N[C@@H](/C=C/C(C)=C/[C@H](C)[C@H](Cc2ccccc2)OC)[C@H](C)C(=O)N[C@@H](C(=O)O)CCC(=O)N1C
- IC50 [18]: no inhibition
- IC50 [1]: 8700 µM
- IC50 [2]: 0.0018 µM

SMILES: CCCOC(=O)C1C(C(=O)O)C2CC[C@H]1O2 (stereo partly specified)
- GI50 [5]: 110 µM
- GI50 [6]: 75 µM
- GI50 [7]: 450 µM
- GI50 [8]: 15 µM
- GI50 [9]: 315 µM
